Experimental data published in patent US20220162561A1, “COMPOSITION FOR PROMOTING SECRETION OF EXTRACELLULAR VESICLES” (priority 2019, published 2022).

Legend:
Format in all cases: cell-based
[1] = system: mesenchymal stem cells derived from human adipose tissue; test: Test Example 3: promotion of secretion of extracellular vesicles, PS Capture exosome ELISA (anti-CD63); settings: 24 hours, absorbance 450 nm minus 620 nm
Experimental: Mesenchymal stem cells derived from the human adipose tissue (#C-12977 manufactured by Takara Bio Inc.) were suspended in mesenchymal stem cell growth medium 2 (C-28009 manufactured by Takara Bio Inc.) so as to be 8×10^4 cells/1.8 mL, and seeded on a 6-well cell culture treatment plate (3516 manufactured by Corning Inc.). To the seeded mesenchymal stem cells derived from human adipose tissue was added 200 μL of the compound solution of each of Examples 1 to 8 diluted to 10-fold concentration with the mesenchymal stem cell growth medium 2, or mesenchymal stem cell growth medium alone (control), and after culturing for 24 hours, the culture solution was recovered. Subsequently, the recovered culture solution was centrifuged by 20,000×g at 4° C. for 60 minutes to prepare a culture solution from which cell fragments and Large Extracellular Vesicles were removed. For the detection of the extracellular vesicles, PS Capture (trademark) exosome ELISA kit (anti-mouse IgG POD) (#297-79201 manufactured by FUJIFILM Wako Pure Chemical Corporation) was used.
To Reaction/Washing Buffer (10×) diluted 10-fold with purified water was added 1/100 amount of Exosome Binding Enhancer (100×) to prepare a Reaction/Washing Buffer (1×). The culture solution prepared as mentioned above was diluted 5-fold with the Reaction/Washing Buffer (1×). After washing the Exosome Capture 96-well plate with 300 μL of the Reaction/Washing Buffer (1×) three times, 5-fold diluted each of the culture solution or mesenchymal stem cell growth medium alone in which no cell was cultured was added to each well, and the mixture was reacted at room temperature for 2 hours while shaking with a microplate shaker. After completion of the reaction, the reaction mixture was discarded, and after washing each well with 300 μL of the Reaction/Washing Buffer (1×) three times, 100 μL of Primary Antibody Anti-CD63 (×100) diluted 1,000-fold with the Reaction/Washing Buffer (1×) was added thereto, and the mixture was reacted at room temperature for 1 hour while shaking with a microplate shaker. After completion of the reaction, the reaction mixture was discarded, and after washing each well with 300 μL of the Reaction/Washing Buffer (1×) three times, 100 μL of the Secondary Antibody HRP-conjugated Anti-mouse IgG (100×) diluted 1,000-fold with the Reaction/Washing Buffer (1×) was added thereto, and the mixture was reacted at room temperature for 1 hour while shaking with a microplate shaker. After completion of the reaction, the reaction mixture was discarded, and after washing each well with 300 μL of the Reaction/Washing Buffer (1×) five times, 100 μL of TMB Solution was added, and after shaking for 1 minute with a microplate shaker, the mixture was reacted at room temperature for 30 minutes. After completion of the reaction, 100 μL of Stop Solution was added thereto, and after shaking with a microplate shaker for 5 seconds, the absorbance at 450 nm and 620 nm was measured with Enspire (manufactured by PerkinElmer), and the absorbance at 620 nm was subtracted from the absorbance at 450 nm for each well.

[2] = system: mesenchymal stem cells derived from human bone marrow; test: Test Example 9: cell proliferation activity (cell viability), CellTiter-Glo
Experimental: (§1) Mesenchymal stem cells derived from human bone marrow or mesenchymal stem cells derived from human umbilical cord matrix (#C-12974, #C-12971 manufactured by Takara Bio Inc.) were suspended in mesenchymal stem cell growth medium 2 (C-28009 manufactured by Takara Bio Inc.) so as to be 2×10^3 cells/90 μL, and seeded on a 96-well cell culture treatment plate (3585 manufactured by Corning Inc.). To the seeded mesenchymal stem cells was added each 10 μL of the compounds of Examples 1 to 8 diluted to 10-fold concentration with the mesenchymal stem cell growth medium 2, and the cells were cultured for 24 hours. Next, according to the following method, the number of living cells was measured using CellTiter-Glo (Registered Trademark) Luminescent Cell Viability Assay (G7570 manufactured by Promega).
(§2) CellTiter-Glo (Registered Trademark) Substrate was dissolved in CellTiter-Glo (Registered Trademark) Buffer. The prepared solution was added to each well with 100 μL/well, then, 100 μL thereof was apportioned to a 96-well cell culture treatment white plate (356701 manufactured by Corning Inc.), and luminescence was measured with Enspire (manufactured by PerkinElmer). A relative value when the compound untreated group (control) was set to 1 was calculated.

[3] = system: mesenchymal stem cells derived from human umbilical cord matrix; test: as above
Experimental: as §1, §2

[4] = 20 nM, 24 hours, CellTiter-Glo, control set to 1
[5] = 2 μM, 24 hours, CellTiter-Glo, control set to 1

| SMILES | Difference in absorbance ([1]; Table 2, 2 μM) | Relative value of luminescence [2, 4] | Relative value of luminescence [3, 4] | Relative value of luminescence [2, 5] | Relative value of luminescence [3, 5] | further results |
| --- | --- | --- | --- | --- | --- | --- |
| Cc1cc2c(C(C)C)c(O)c(O)c(C=O)c2c(O)c1-c1c(C)cc2c(C(C)C)c(O)c(O)c(C=O)c2c1O [Example 4, (R)-(−)-Gossypol] | 1.51 | – | – | – | – | Relative value of luminescence ([2]; human, 24 h, 2 μM): 0.86; Relative value of luminescence ([3]; human, 24 h, 2 μM): 0.92 |
| CCCCCCCCCCCc1ccc(/C=C2\N=C(c3ccc[nH]3)C=C2OC)[nH]1.Cl [Example 7, Undecylprodigiosin Hydrochloride] | – | 0.82 | 0.82 | – | – | Difference in absorbance ([1]; Table 2, 50 nM): 1.88 |
| CC(=O)O.Cc1cc2c(C(C)C)c(O)c(O)c(C=O)c2c(O)c1-c1c(C)cc2c(C(C)C)c(O)c(O)c(C=O)c2c1O [Example 2, (S)-Gossypol Acetate] | 1.79 | – | – | 0.96 | 0.97 | – |
| Cc1cc2c(C(=O)NC[C@H](C)c3ccccc3)c(O)c(O)cc2c(O)c1-c1c(C)cc2c(C(=O)NC[C@H](C)c3ccccc3)c(O)c(O)cc2c1O [Example 8, Sabutoclax] | 1.41 | – | – | 0.93 | 1.00 | – |
| COC1=CC(c2cc3ccccc3[nH]2)=N/C1=C\c1[nH]c(C)cc1C.CS(=O)(=O)O [Example 5, Obatoclax Mesylate] | – | 0.96 | 0.84 | – | – | Difference in absorbance ([1]; Table 1, 50 nM): 2.27 |
| Cc1cc2c(C(C)C)c(O)c(O)cc2c(O)c1-c1c(C)cc2c(C(C)C)c(O)c(O)cc2c1O [Example 3, (+)-Apogossypol] | 1.33 | – | – | – | – | Relative value of luminescence ([2]; human, 24 h, 2 μM): 1.00; Relative value of luminescence ([3]; human, 24 h, 2 μM): 1.01 |
| CCCCCC1=C/C(=C\c2[nH]c(-c3ccc[nH]3)cc2OC)N=C1C.Cl [Example 6, Prodigiosin Hydrochloride] | – | 0.92 | 0.78 | – | – | Difference in absorbance ([1]; Table 2, 50 nM): 2.38 |
| CC(=O)O.Cc1cc2c(C(C)C)c(O)c(O)c(C=O)c2c(O)c1-c1c(C)cc2c(C(C)C)c(O)c(O)c(C=O)c2c1O (racemic) [Example 1, (±)-Gossypol Acetate] | 1.97 | – | – | 0.91 | 0.97 | Difference in absorbance ([1]; Table 1, 2 μM): 2.15 |
